According to patent US4389398A, “Amino glycoside antibiotics having antiprotozoal and anthelmintic activity” (priority 1978, dated 1983):
Values after ≈ are worked out from the molar mass of the structure shown.

Tests used:
Escherichia coli SC = experiment: Protective activity in mice, Escherichia coli SC infection; assay type: in vivo; conditions: subcutaneous one hour after infection, survivors at 48 hours, read-out: PD50
Experimental: (§1) Infected non-treated controls die in about 18 to 24 hours. Generally 5-7 dose levels are administered to mice weighing about 20 grams in groups of 7-10.

[1] = test system: Pseudomonas aeruginosa SC; experiment: Protective activity in mice, Pseudomonas aeruginosa SC infection; assay type: in vivo; conditions: subcutaneous one hour after infection, survivors at 48 hours, read-out: PD50
Experimental: as §1

Streptococcus pyogenes = experiment: In vitro minimal inhibitory concentration, Streptococcus pyogenes; assay type: cell-based; conditions: free base; yeast beef broth medium, pH 7.4; read-out: MIC
Experimental: (§2) In Table III below is set forth the in vitro minimal inhibitory concentration of gentamicin B, gentamicin B1 and gentamicin X all in the free base form against a variety of gram positive and gram negative microorganisms. The experiments were carried out in a yeast beef broth medium at pH 7.4.

Entamoeba histolytica [2] = experiment: Stated activity against Entamoeba histolytica
Klebsiella pneumoniae = experiment: In vitro minimal inhibitory concentration, Klebsiella pneumoniae; assay type: cell-based; conditions: free base; yeast beef broth medium, pH 7.4; read-out: MIC
Experimental: as §2

Syphacia obvelata [3] = experiment: Anthelmintic activity in vivo against Syphacia obvelata in mice; design: species or system male Millerton mice
Staphylococcus aureus = experiment: In vitro minimal inhibitory concentration, Staphylococcus aureus; assay type: cell-based; conditions: free base; yeast beef broth medium, pH 7.4; read-out: MIC
Experimental: as §2

Pseudomonas aeruginosa = experiment: In vitro minimal inhibitory concentration, Pseudomonas aeruginosa; assay type: cell-based; conditions: free base; yeast beef broth medium, pH 7.4; read-out: MIC
Experimental: as §2

Trichomonas vaginalis [4] = experiment: Stated activity against Trichomonas vaginalis
Trichomonas vaginalis [5] = experiment: In vitro activity against Trichomonas vaginalis; assay type: cell-based
Excerpt: In Table VI below is set forth the in vitro activity of the compounds of this invention against T. vaginalis. The test procedure used was substantially as described by R. J. Schnitzer on pages 289-331 in Experimental Chemotherapy, Volume 1, Academic Press, New York (1963).

Escherichia coli = experiment: In vitro minimal inhibitory concentration, Escherichia coli; assay type: cell-based; conditions: free base; yeast beef broth medium, pH 7.4; read-out: MIC
Experimental: as §2

Trichomonas foetus = experiment: Stated activity against Trichomonas foetus
Acute toxicity in mice = conditions: mouse, in vivo
Experimental: The acute toxicity of gentamicin B, gentamicin B1 and gentamicin X is determined in male CF-1 (Carworth Farms) mice weighing about 20 grams each.

Syphacia obvelata [6] = experiment: Stated anthelmintic activity against pinworms such as Syphacia obvelata
Histomonas meleagridis = experiment: Stated activity against Histomonas meleagridis
Entamoeba hystolytica = experiment: Activity against Entamoeba hystolytica (MIC and minimal cidal concentration); assay type: cell-based; conditions: 48 hours
[7] = test system: Staphylococcus aureus Gray; experiment: Protective activity in mice, Staphylococcus aureus Gray infection; assay type: in vivo; conditions: sc, subcutaneous one hour after infection, survivors at 48 hours, read-out: PD50
Experimental: as §1

Bacillus subtilis = experiment: In vitro minimal inhibitory concentration, Bacillus subtilis; assay type: cell-based; conditions: free base; yeast beef broth medium, pH 7.4; read-out: MIC
Experimental: as §2

helminths = conditions: cited from earlier work
protozoa = conditions: cited from earlier work
Trichomonas vaginalis [8] = conditions: at somewhat high dose ranges; cited from earlier work
Entamoeba histolytica [9] = conditions: Albach et al., Am. J. Trop. Med. Hyg. 15, 885 (1965); cited from earlier work

Q: Which ED50 (Escherichia coli SC) does the source give for `CNC1C(O)C(OC2C(N)CC(N)C(OC3OC(CO)C(O)C(O)C3N)C2O)OCC1(C)O` (centres unmarked) [Gentamicin X] here?
A: 1.5 mg/kg

Q: And the ED50 [1]?
A: 7 mg/kg

Q: What about the MIC (Streptococcus pyogenes) of the same molecule?
A: 0.3 to 0.75 µg/mL (≈ 0.622 to 1.55 µM)

Q: What about the “antiprotozoal activity (in words)” value (Entamoeba histolytica [2]) of the same molecule?
A: effective

Q: And the MIC (Klebsiella pneumoniae)?
A: 0.75 µg/mL (≈ 1.55 µM)

Q: What about the “anthelmintic effect (in words)” value (Syphacia obvelata [3]; 62 mg/kg/day) of the same molecule?
A: partially effective

Q: What about the “% Infected” value (Syphacia obvelata [3]; 62 mg/kg/day, 0.05% in diet) of the same molecule?
A: 83%

Q: What about the “Mean Worm Burden” value (Syphacia obvelata [3]; 62 mg/kg/day, 0.05% in diet) of the same molecule?
A: 27

Q: What about the “anthelmintic effect (in words)” value (Syphacia obvelata [3]; 310 mg/kg/day) of the same molecule?
A: totally effective

Q: And the “% Infected” value (Syphacia obvelata [3]; 310 mg/kg/day, 0.25% in diet)?
A: 0%

Q: What about the “Mean Worm Burden” value (Syphacia obvelata [3]; 310 mg/kg/day, 0.25% in diet) of the same molecule?
A: 0

Q: And the “anthelmintic activity (in words)” value (Syphacia obvelata [3]; male Millerton mice)?
A: exhibit anthelmintic activity

Q: What about the MIC (Staphylococcus aureus) of the same molecule?
A: 0.08 to 0.75 µg/mL (≈ 0.166 to 1.55 µM)

Q: What about the MIC (Pseudomonas aeruginosa) of the same molecule?
A: 0.3 to 0.75 µg/mL (≈ 0.622 to 1.55 µM)

Q: What about the “antiprotozoal activity (in words)” value (Trichomonas vaginalis [4]) of the same molecule?
A: effective

Q: And the MIC (Trichomonas vaginalis [5]; Trichomonas vaginalis, 48 hours, read-out: Minimal 99% Suppression Level)?
A: 2.5 µg/mL (≈ 5.18 µM)

Q: And the MBC (Trichomonas vaginalis [5]; Trichomonas vaginalis, 48 hours, read-out: Minimal Cidal Level)?
A: 10 µg/mL (≈ 20.7 µM)

Q: And the MIC (Escherichia coli)?
A: 0.3 µg/mL (≈ 0.622 µM)

Q: What about the “antiprotozoal activity (in words)” value (Trichomonas foetus) of the same molecule?
A: effective

Q: And the LD50 (Acute toxicity in mice; ip)?
A: > 1000 mg/kg

Q: What about the LD50 (Acute toxicity in mice; iv) of the same molecule?
A: 225 mg/kg

Q: And the “anthelmintic activity (in words)” value (Syphacia obvelata [6])?
A: effective

Q: What about the “antiprotozoal activity (in words)” value (Histomonas meleagridis) of the same molecule?
A: effective

Q: What about the MBC (Entamoeba hystolytica) of the same molecule?
A: 7 µg/mL (≈ 14.5 µM)

Q: And the MIC (Entamoeba hystolytica; read-out: minimal inhibitory concentration)?
A: 4 µg/mL (≈ 8.29 µM)

Q: And the ED50 [7]?
A: 4 mg/kg

Q: And the MIC (Bacillus subtilis)?
A: 0.03 µg/mL (≈ 0.0622 µM)

Q: For `NC[C@@H]1O[C@H](O[C@H]2[C@@H](O)[C@H](O[C@@H]3[C@@H](O)[C@H](N)C[C@H](N)[C@H]3O[C@H]3O[C@H](CO)[C@@H](O)[C@H](O)[C@H]3N)O[C@@H]2CO)[C@H](N)[C@@H](O)[C@@H]1O` [paromomycin], which “anthelmintic activity (in words)” value (helminths) is on record?
A: exhibit anthelmintic activity in reasonably useful dosage ranges

Q: And the “antiprotozoal activity (in words)” value (protozoa)?
A: known to exhibit antiprotozoal activity to any substantial degree

Q: With “Gentamicin C [Garamycin®, reference compound]” as the molecule, how does the “activity against T. vaginalis (in words)” value (Trichomonas vaginalis [8]) read?
A: only slight activity

Q: What about the “Minimal 99% Suppression Level” value (Trichomonas vaginalis [5]; 24 hours) of the same molecule?
A: 250 µg/mL

Q: What about the “Minimal Cidal Level” value (Trichomonas vaginalis [5]; 24 hours) of the same molecule?
A: > 250 µg/mL

Q: And the “Minimal 99% Suppression Level” value (Trichomonas vaginalis [5]; 48 hours)?
A: 100 µg/mL

Q: What about the “Minimal Cidal Level” value (Trichomonas vaginalis [5]; 48 hours) of the same molecule?
A: 100 µg/mL

Q: What about the “activity against E. histolytica (in words)” value (Entamoeba histolytica [9]) of the same molecule?
A: relatively ineffective
